Results reported in patent publication US20020034725A1, “SENSITIZATION OF CELLS TO RADIATION AND AND CHEMOTHERAPY” (priority 1996, published 2002).

Tests used:
H-ras [1] = assay: Western blot of H-ras prenylation in SW480 cells; format: cell-based, human; details: 48 hours
Description: FIG. 17A is an image of a Western blot depicting inhibition by FTI-277 of K-ras prenylation in human SW480 colon carcinoma cells. SW480 cells were treated with the indicated concentrations of FTI-277 (μM) for 48 hours. Samples were harvested and cell lysates were analyzed by Western blotting using either a H-ras monoclonal antibody (top) or a K-ras monoclonal antibody (bottom). Arrows indicate unfarnesylated ras bands.

H-ras [2] = assay: Western blot of ras farnesylation in mouse prostate tumor cells; format: cell-based; details: primary tumor cells or metastatic clone, 24 hours
Description: FIG. 13A is an image of a Western blot depicting the effects of FTI-277 on ras farnesylation in cultured cells derived from a primary and a metastatic tumor following 24 hours of treatment with the inhibitor at the indicated concentrations. Mouse prostate tumor cells transformed with H-ras^v12 and myc oncogenes were treated with the indicated doses (μM) of FTI-277. After 24 hours, samples were harvested for Western blot analysis using an anti-H-ras antibody. The upper band (arrow) corresponds to unfarnesylated H-ras. C denotes controls.
Cells were lysed in culture dishes with 1 x reducing Laemmli sample buffer. Samples were boiled, sheared and clarified by centrifugation at 14,000 rpm in a microfuge before storage at −20° C. Samples containing equal amounts of protein were separated on a 12% SDS polyacrylamide gel and electrophoretically transferred to nitrocellulose membranes. Membranes were blocked for 1-2 hours in PBS containing 0.1% Tween-20 and 5% powdered milk before antibody addition. Membranes were probed with monoclonal pan-ras antibody AB-4 (Oncogene Science, Uniondale, N.Y.) at a concentration of 0.5 μg/ml, or with monoclonal H-ras antibody LA069 (1:5000 dilution; Quality Biotech, Camden, N.J.). Detection of protein was accomplished using the ECL chemiluminescence kit (Amersham, Arlington Heights, Ill.). […]

3.7 and 5R cells = assay: Cell growth after FTI-277 treatment; format: cell-based, rat
Description: FIG. 15A is a graph depicting growth of primary REF cells (circles) and 3.7 cells (squares) after FTI-277 treatment. Two×10^5 cells were plated in medium containing 2.5 μM (3.7 cells) or 5 μM (REF cells) of FTI-277. […] Cells were harvested from replicate dishes at one day intervals and counted using a hemocytometer to determine the total cell number in each culture. Open symbols: DMSO (drug carrier) treated cells; closed symbols: FTI-277 treated cells.
FIG. 15B is a graph depicting growth of MR4 cells (circles) and 5R cells (squares) following treatment with FTI-277 treatment. Three×10^5 cells were plated in medium containing 5 μM FTI-277. Cells were harvested from replicate dishes at one day intervals and counted using a hemocytometer to determine the total cell number in each culture. Open symbols: DMSO (drug carrier) treated cells; closed symbols: 5 μM FTI-277 treated cells.

wild type c-H-ras = assay: Western blot of ras farnesylation in untransformed REF and MR4 cells; format: cell-based, rat
From the text: The oncogene-transfected cells used in this study were all derived from early passage rat embryo fibroblast (REF) by transfection with the pEJ plasmid containing the H-ras gene isolated from the EJ bladder carcinoma. This vector was introduced by calcium phosphate DNA transfer into primary REF, either alone or together with the pMC29 vector containing v-myc. One clone containing both the introduced H-ras gene and the v-myc genes is 3.7 (McKenna et al., 1990, Cancer Res. 50:97-102). 4R and 5R cells were obtained as rare transformants after transfection with the pEJ plasmid alone (McKenna et al., 1993, supra). MR4 cells were immortalized by transfection with an expression vector comprising v-myc linked to a neomycin-resistant selectable marker (McKenna et al., 1991, Radiat. Res. 125:283-287). REF-GG cells were obtained by transforming REF cells with a chimeric H-ras(v12) in which the CAAX motif is CVLL. All cell lines were mycoplasma free.
Cells were lysed in culture dishes with 1 x reducing Laemmli sample buffer. Samples were boiled, sheared and clarified by centrifugation at 14,000 rpm in a microfuge before storage at −20° C. Samples containing equal amounts of protein were separated on a 12% SDS polyacrylamide gel and electrophoretically transferred to nitrocellulose membranes. Membranes were blocked for 1-2 hours in PBS containing 0.1% Tween-20 and 5% powdered milk before antibody addition. Membranes were probed with monoclonal pan-ras antibody AB-4 (Oncogene Science, Uniondale, N.Y.) at a concentration of 0.5 μg/ml, or with monoclonal H-ras antibody LA069 (1:5000 dilution; Quality Biotech, Camden, N.J.). Detection of protein was accomplished using the ECL chemiluminescence kit (Amersham, Arlington Heights, Ill.). Images were digitized using an Arcus II scanner, and figures were assembled using Adobe Photoshop 3.0.

REF-GG cells = assay: SF2 by limiting dilution analysis of clonogens; format: cell-based, rat; details: 5 μM FTI-277
Description: FIG. 14B comprises two graphs depicting clonogenic survival of REF-GG cells following treatment with GGTI-298 and irradiation. REF-GG cells were plated at 1 to 5 cells per well in microtiter plates in the absence (top panel) or presence (bottom panel) of 8 μM of the geranylgeranyltransferase inhibitor, GGTI-298. Cells were then irradiated with 2 Gray or were mock irradiated. Cells were re-fed after 24 hours with medium that contained no inhibitor, thus diluting the inhibitor to 0.8 μM. These cells were then incubated for two weeks prior to scoring for colony formation. The data are presented as the natural log of the fraction of negative wells. The surviving fraction at 2 Gray was determined from the differences in the slopes obtained by linear regression of analysis of irradiated and unirradiated cells. The surviving fraction at 2 Gray calculated for cells irradiated after GGTI-298 treatment was 0.64. Control cell surviving fraction after 2 Gray was 0.91. The correlation coefficient for linear regression analysis (r^2) was greater than 0.95 in all cases.
Cells were irradiated with the indicated doses of ionizing radiation and were treated with FTI-277 for 24 hours after irradiation (FIG. 14A). […] The shoulders of the survival curves were reduced as were the overall slopes of the survival curves. […]

`COC(=O)[C@H](CCSC)NC(=O)c1ccc(NC[C@@H](N)CS)cc1-c1ccccc1` [FTI-277] was tested, and the “lowest concentration with altered migration of H-ras” value (H-ras [1]) was 2.5 µM, the H-ras farnesylation (H-ras [2]) was “dose-dependent reduction of the farnesylated form” and the cell growth (3.7 and 5R cells; 3.7 cells, conditions of radiation survival experiments) was “some inhibition of cell growth”. The “increase in cell number” value (3.7 and 5R cells; 3.7 cells, day 4 after drug treatment) was “fifty-fold increase in cell number”, the cell growth (3.7 and 5R cells; 5R cells, 5 μM) was “more resistant to growth inhibition” and the migration of ras (wild type c-H-ras; MR4 cells, up to 10 μm, pan-ras antibody) was “no changes in the migration of ras”. For the same compound, the H-ras farnesylation status (wild type c-H-ras; untransformed REF, doses of up to 30 μM) was “majority of the H-ras remained in the farnesylated form” and the “SF2 (surviving fraction at 2 Gray)” value (REF-GG cells) was 0.81.
